This assay has as its target T1, cloned human CRTH2 receptor (Homo sapiens, UniProt Q9Y5Y4).
T1 construct: purchased Biosignal; host or cells: HEK-293 cells stably expressing human CRTH2 and G-alpha-16 (membranes)
T1 sequence (Q9Y5Y4 1-395): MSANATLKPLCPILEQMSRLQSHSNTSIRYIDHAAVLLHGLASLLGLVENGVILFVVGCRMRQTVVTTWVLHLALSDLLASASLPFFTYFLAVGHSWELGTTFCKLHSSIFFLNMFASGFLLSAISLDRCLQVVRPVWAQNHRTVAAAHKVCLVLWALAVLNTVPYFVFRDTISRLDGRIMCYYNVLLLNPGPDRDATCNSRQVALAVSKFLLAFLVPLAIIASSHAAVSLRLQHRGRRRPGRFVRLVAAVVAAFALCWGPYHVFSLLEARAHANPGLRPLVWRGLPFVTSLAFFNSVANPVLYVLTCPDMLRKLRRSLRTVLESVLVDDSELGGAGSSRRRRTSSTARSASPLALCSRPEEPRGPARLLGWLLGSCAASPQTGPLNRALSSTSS
Nature of the assay: Radioligand membrane binding assay: inhibition of [3H] PGD2 binding to CRTH2 (Scintillation Proximity Assay). The settings on record: inhibition of [3H] PGD2 binding to membranes of HEK-293 cells stably expressing human CRTH2; SPA; 10 point curve from 10 μM; room temperature, approximately 2 hours. A digest of the protocol:
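Scintillation proximity binding of [3H] PGD2 (at KD or lower) to membranes of HEK-293 cells stably expressing human CRTH2, in 50 mM Tris-HCl pH 7.5, 5 mM MgCl2, 1 mM EDTA. Ten-point 3-fold series from 10 μM final, ~2 h at room temperature; cold PGD2 defines NSB; percent inhibition, duplicate runs (n=2).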

Structures are written as SMILES. Bounds are passed on as bounds.

Compound `CC(=O)N(c1ccc(Cl)cc1)[C@H]1C[C@@H](C)N(C(=O)c2cccs2)c2ccccc21` [Compound B-7, (2R,4S)-cis-N-(4-chloro-phenyl)-N-[2-methyl-1-(thiophene-2-carbonyl)-1,2,3,4-tetrahydro-quinolin-4-yl]-acetamide] yielded a Ki below 10 µM.
For `CCC(=O)N(c1ccc(Cl)cc1)[C@@H]1C[C@H](C)N(C(=O)c2ccc(F)cc2)c2ccc(OCC(=O)O)cc21` (racemic) [Compound B-65, (±)-Cis-[4-[(4-chloro-phenyl)-propionyl-amino]-1-(4-fluoro-benzoyl)-2-methyl-1,2,3,4tetrahydro-quinolin-6-yloxy]-acetic acid] the value was below 10 µM.
As for `CC(=O)N(c1ccccc1)[C@@H]1C[C@H](C)N(C(=O)c2snnc2C)c2ccccc21` (racemic) [Compound A-17, (±)-Cis-N-[2-methyl-1-(4-methyl-[1,2,3]thiadiazole-5-carbonyl)-1,2,3,4-tetrahydro-quinolin-4-yl]-N-phenyl-acetamide], the Ki was below 10 µM.
For `COc1ccc(C(=O)N2c3ccccc3[C@H](N(C(C)=O)c3ccc(CCC(=O)O)cc3)C[C@@H]2C)cc1` [Compound D-6, (2S,4R)-3-(4-{Acetyl-[1-(4-methoxy-benzoyl)-2-methyl-1,2,3,4-tetrahydro-quinolin-4-yl]-amino}-phenyl)-propionic acid], the Ki was below 10 µM.
In the case of `COc1cccc(C(=O)N2c3ccccc3[C@H](N(C(C)=O)C3CCCCC3)C[C@@H]2C)c1` (racemic) [Compound B-53, (±)-Cis-N-cyclohexyl-N-[1-(3-methoxy-benzoyl)-2-methyl-1,2,3,4-tetrahydro-quinolin-4-yl]-acetamide], the Ki was below 60 µM.
In the case of `CCOC(=O)[C@H]1C[C@@H](N(C(C)=O)c2ccccc2)c2ccccc2N1C(=O)c1ccc(F)cc1` (racemic) [Compound B-101, (±)-Cis-4-(acetyl-phenyl-amino)-1-(4-fluoro-benzoyl)-1,2,3,4-tetrahydro-quinoline-2-carboxylic acid ethyl ester], the Ki was below 10 µM.
Then `CC(=O)N(c1ccc(Cl)cc1)[C@H]1C[C@@H](C)N(C(=O)c2ccc(F)cc2)c2ccccc21` [Compound B-26, (2R,4S)-cis-N-(4-chloro-phenyl)-N-[1-(4-fluoro-benzoyl)-2-methyl-1,2,3,4-tetrahydro-quinolin-4-yl]-acetamide], with below 10 µM; and `CCC(=O)N(c1ccccc1)[C@@H]1C[C@H](C)N(C(=O)c2ccnc(C)c2)c2ccccc21` (racemic) [Compound A-131, (±)-Cis-N-[2-methyl-1-(2-methyl-pyridine-4-carbonyl)-1,2,3,4-tetrahydro-quinolin-4-yl]-N-phenyl-propionamide], with below 10 µM; and `COc1cccc(C(=O)N2c3ccccc3[C@@H](N(C(C)=O)c3ccccc3)C[C@H]2C)c1` [Compound A-126, (2R,4S)-cis-N-[1-(3-methoxy-benzoyl)-2-methyl-1,2,3,4-tetrahydro-quinolin-4-yl]-N-phenyl-acetamide], with below 60 µM.
For `CC(C)CC(=O)N(c1ccccc1)[C@@H]1C[C@H](C)N(C(=O)c2ccc(F)cc2)c2ccccc21` (racemic) [Compound A-132, (±)-Cis-N-[1-(4-fluoro-benzoyl)-2-methyl-1,2,3,4-tetrahydro-quinolin-4-yl]-3-methyl-N-phenyl-butyramide] the value was below 10 µM.
In turn, `CC(=O)N(c1ccccc1)[C@H]1C[C@@H](C)N(C(=O)c2cccs2)c2ccccc21` [Compound A-11, (2R,4S)-N-[2-methyl-1-(thiophene-2-carbonyl)-1,2,3,4-tetrahydro-quinolin-4-yl]-N-phenyl-acetamide] came in with a Ki below 10 µM.
In turn, `COc1cccc(C(=O)N2c3ccccc3[C@@H](N(C(C)=O)c3ccc(Cl)cc3)C[C@H]2C)c1` [Compound B-9, (2R,4S)-cis-N-(4-chloro-phenyl)-N-[1-(3-methoxy-benzoyl)-2-methyl-1,2,3,4-tetrahydro-quinolin-4-yl]-acetamide] gave a Ki below 10 µM.
`CCC(=O)N(c1ccc(Cl)cc1)[C@@H]1C[C@H](C(F)(F)F)N(C(=O)c2cccc(OC)c2)c2ccc(OC)cc21` (racemic) [Compound B-110, (±)-Cis-N-(4-chloro-phenyl)-N-[6-methoxy-1-(3-methoxy-benzoyl)-2-trifluoromethyl-1,2,3,4-tetrahydro-quinolin-4-yl]-propionamide] gave a Ki below 10 µM.
Then `CCC(=O)N(c1ccc(Cl)cc1)[C@@H]1C[C@H](CCc2ccccc2)N(C(=O)c2ccc(F)cc2)c2ccccc21` (racemic) [Compound B-97, (±)-Cis-N-(4-chloro-phenyl)-N-[1-(4-fluoro-benzoyl)-2-phenethyl-1,2,3,4-tetrahydro-quinolin-4-yl]-propionamide], with below 10 µM; and `CCC(=O)N(c1ccc(Cl)cc1)[C@@H]1C[C@H](C(F)(F)F)N(C(=O)c2ccc(F)cc2)c2ccc(OC)cc21` (racemic) [Compound B-109, (±)-Cis-N-(4-chloro-phenyl)-N-[1-(4-fluoro-benzoyl)-6-methoxy-2-trifluoromethyl-1,2,3,4-tetrahydro-quinolin-4-yl]-propionamide], with below 10 µM; and `CC(=O)N(c1ccccc1)[C@H]1C[C@@H](C)N(C(=O)c2ccno2)c2ccccc21` [Compound A-70, (2R,4S)-cis-N-[1-(isoxazole-5-carbonyl)-2-methyl-1,2,3,4-tetrahydro-quinolin-4-yl]-N-phenyl-acetamide], with below 10 µM.
`CC(=O)N(c1ccccc1)[C@@H]1C[C@H](C(=O)O)N(C(=O)c2ccc(F)cc2)c2ccccc21` (racemic) [Compound B-102, (±)-Cis-4-(acetyl-phenyl-amino)-1-(4-fluoro-benzoyl)-1,2,3,4-tetrahydro-quinoline-2-carboxylic acid] gave an inhibition constant (Ki) below 10 µM.
In the case of `CCC(=O)N(c1ccccc1)[C@H]1C[C@@H](C)N(C(=O)c2ccc(C3CCN(C(C)=O)CC3)cc2)c2ccccc21` [Compound A-51, (2R,4S)-cis-N-{1-[4-(1-acetyl-piperidin-4-yl)-benzoyl]-2-methyl-1,2,3,4-tetrahydro-quinolin-4-yl}-N-phenyl-propionamide], the Ki was below 10 µM.
Compound `CCN(CC)c1ccc(N(C(C)=O)[C@@H]2C[C@H](C)N(C(=O)c3ccc(N(C)C)cc3)c3cc(N(CC)CC)ccc32)cc1` (racemic) [Compound B-84, (±)-Cis-N-[7-diethylamino-1-(4-dimethylamino-benzoyl)-2-methyl-1,2,3,4-tetrahydro-quinolin-4-yl]-N-(4-diethylamino-phenyl)-acetamide] registered a Ki below 10 µM.
In turn, `CC(=O)N(c1ccc(Oc2ccccc2)cc1)[C@@H]1C[C@H](C)N(C(=O)c2ccc(F)cc2)c2ccccc21` (racemic) [Compound B-51, (±)-Cis-N-[1-(4-fluoro-benzoyl)-2-methyl-1,2,3,4-tetrahydro-quinolin-4-yl]-N-(4-phenoxy-phenyl)-acetamide] yielded a Ki below 10 µM.

The record behind these values is patent publication US7504508B2, “PGD2 receptor antagonists for the treatment of inflammatory diseases” (Millennium Pharmaceuticals, Inc., priority 2002, dated 2009).
